“Also recorded” adds a separate entry of the source. Read-outs that look alike come from different tables or passages of the source.
Legend:
CYP3A4 [1] = tested on: CYP3A4; set-up: method as in ref IB; conditions: separate assay, ref IB, cited from earlier work
[2] = tested on: peripheral blood mononucleated cells; assay: Antibody validation, flow cytometry of cells treated ex vivo, RNA pol II pSer5; type: cell-based, human
Description: (§1) SUPPLEMENTARY TABLE 12: ANTIBODIES USED
(§2) Antibody Application Supplier & Description Dilution/ Validation […]
(§3) RNA pol II Immunohistoche Abcam Rabbit Immuno- Immunohistochemistry: pSer5 mistry (Fig 3); ab193467 monoclonal histochemistry: Positive nuclear staining Flow cytometry [EPR19015] to 1 in 8000 in normal spleen
(§4) (Supplementary RNA 0.02 µg/mL samples. Significant
(§5) Figure 5) polymerase II reduction in staining in CTD repeat Flow cytometry: MCF7 cell line treated
(§6) YSPTSPS 1 in 100 with samuraciclib. […]
(§7) intensity of labelling in […]
(§8) pCDK1/2/ Immunohistoche Abcam Rabbit 1 in 500 Immunohistochemistry:
(§9) 3 mistry (Fig 3) ab201008 monoclonal 1.2 μg/mL Positive nuclear staining [EPR19546] to in normal tonsil samples.
(§10) T161) + CDK2 staining in MCF7 cell
(§11) (phospho T160) line treated with
(§12) Goat anti- Flow cytometry Abcam Polyclonal goat 1 in 1000 Flow cytometry: No Rabbit IgG (Supplementary ab150077 anti-rabbit IgG 2.0 μg/mL significant binding to H&L Figure 5) H&L peripheral blood
(§13) AlexaFluor conjugated to mononucleated cells in 488 AlexaFluor 488 absence of primary

human tumour xenograft = tested on: human tumour xenograft; set-up: method as in ref IB; conditions: ref IB, cited from earlier work
CYP2C19 = tested on: CYP2C19; set-up: method as in ref IB; conditions: human microsomes; ref IB; cited from earlier work
CYP3A4 [3] = tested on: CYP3A4; set-up: method as in ref IB; conditions: human microsomes; ref IB; cited from earlier work
MCF7 cell line = assay: Antibody validation, immunohistochemistry of treated cells, pCDK1/2/3; type: cell-based, human; conditions: MCF7 cell line treated with samuraciclib
Description: as §1, §2, §3, §4, §5, §6, §7, §8, §9, §10, §11, §12, §13

[4] = tested on: human peripheral blood lymphocytes; set-up: method as in ref IB; conditions: ref IB; cited from earlier work
CYP3A5 = tested on: CYP3A5; set-up: method as in ref IB; conditions: human microsomes; ref IB; cited from earlier work
[5] = Module 2A trough PK of samuraciclib and fulvestrant; type: in vivo, human
Description: PK parameters were derived using standard non-compartmental methods.
o. Radionuclide Bone Scans, Whole Body should be performed at Screening. See also footnote a.
• If at Screening bone lesions were identified, scans will be repeated during the active treatment phase and during follow-up visits every 16 weeks (± 7 days) from Cycle 1 Day
1, and at the time of confirmation of CR.
• If no bone lesions were identified at Screening, bone scans will only be performed when clinically indicated (i.e., patient describes new or worsening bone pain or has
increasing alkaline phosphatase level or other signs and symptoms of new/progressing bone metastases) but are required at the time of confirmation of CR. New abnormalities
found on subsequent bone scans must be confirmed by CT scan with bone windows or MRI.
p. Adverse Event Reporting : Serious Adverse Events (SAEs) must be reported from the time the patient provides informed consent through and including 28 calendar days after the last
administration of the study drug. SAEs occurring after the active reporting period has ended should be reported if the investigator becomes aware of them. All SAEs that the investigator
believes have at least a reasonable possibility of being related to the study drugs are to be reported to the Sponsor. All AEs (serious and non-serious) should be recorded on the eCRF […]

[6] = tested on: tumour cell lines, including TNBC; set-up: method as in ref Patel et al, 2018 Ainscow et al, 2018; Clark et al, 2017, Ali et al, 2018; conditions: wide range of tumour cell lines, ref Patel et al, 2018 Ainscow et al, Clark et al, 2017, Ali et al; cited from earlier work
[7] = set-up: method as in ref IB; conditions: human microsomes and hepatocytes in vitro; ref IB; cited from earlier work

In the case of CC(C)c1cnn2c(NCc3ccccc3)cc(NC[C@H]3CCNC[C@@H]3O)nc12 [samuraciclib, Samuraciclib], the IC50 (CYP3A4 [1]; midazolam as substrate) is listed as […], the IC50 (CYP3A4 [1]; testosterone as substrate) is listed as […] and the “RNA pol II pSer5 intensity of labelling” value [2] is listed as “Significant reduction in”. For the same compound, the Anti-tumour efficacy (human tumour xenograft; 100 mg/kg/day) was “robust efficacy”, the Anti-tumour efficacy (human tumour xenograft; 30 and 50 mg/kg/day) was “moderate efficacy” and the IC50 (CYP2C19) was […]. The IC50 (CYP3A4 [3]) was […], the pCDK1/2/3 staining (MCF7 cell line) was “Significant reduction in” and the “Genotoxicity in micronucleus tests” value [4] was “Low potential for genotoxicity”. The IC50 (CYP3A5) was greater than 50 µM, the “Interaction between samuraciclib and fulvestrant PK” value [5] was “no fulvestrant interaction; also recorded: did not indicate an interaction; also recorded: No clinical PK interactions” and the Cell growth inhibition [6] was “broad activity”. The Metabolic stability [7] was “metabolically stable”.
